Test system: Histone H3.3
Test: methylation of Histone H3.3 by PRMT6 fusion proteins, reverse phase resin method of scheme 2
Type: biochemical
Conditions: 500 nM enzyme; 1.7 μM Histone H3.3; 37° C.
Procedure: Assays were performed at 37° C., in a final volume of 125 μl. Each assay contained 1.0 μM unlabeled S-adenosyl-L-methionine (AdoMet), […] S-adenosyl-L-[methyl-^3H]methionine (specific activity 67.3 Ci/mmol, 0.55 μCi/μl, Perkin Elmer), 100 mM Hepes, 0.38 μM bovine serum albumin (BSA), 10% glycerol, 10 nM AdoHcy Nucleosidase (MTAN), and 1.7 μM protein substrate; pH of reaction was 7.6. […] Samples (10 μL) were removed at specified times and were analyzed using either SDS-PAGE or methods related to the present disclosure, as discussed below.
A 10 µL aliquot of the reaction mixture was transferred to 6 μl of sample preparation buffer (8 M Guanidine-HCL in 2.5% trifluoroacetic acid (TFA)), making the final concentrations 3 M Guanidine-HCL and 0.94% TFA in the mixture. Guanidine-HCl denatures the protein and TFA makes the reaction very acidic so that PRMT activity is quenched. […] Eluate was dispensed into 20 ml of scintillation cocktail (Fisher Scientific) and counted in a LSC.
Referring now to FIG. 4, there is shown the comparison of the methylation activities of GST-PRMT6 and His-PRMT6 using the method disclosed in scheme 2. […] The reactions were processed and counted in scintillation cocktail.

His-PRMT6: His-tagged PRMT6 protein arginine methyltransferase expressed in E. coli BL21 and purified
fold higher methylation activity compared to GST-PRMT6: 5 fold

From US20100330588A1, “METHOD TO QUANTIFY METHYLTRANSFERASE ACTIVITY” (Utah State University, priority 2009, published 2010)
